{"source": "patent US7763602B2", "about": "“Pyrrole derivatives as antimycobacterial compounds” (priority 2002, dated 2010)"}
{"tested_on": "M. tuberculosis clinical isolates, resistant", "test": "microbe, parasite or virus in culture", "type": "cell-based, Mycobacterium tuberculosis", "conditions": "Mycobacterium tuberculosis, read-out: MIC (μg/ml) M. tuberculosis Resistant (n = 26)", "units": {"MIC": "µg/mL"}}
{"compound": "COc1ccccc1N1CCN(Cc2cc(-c3ccc(Cl)cc3)n(-c3ccc(Cl)cc3)c2C)CC1", "note": "[Compound No. 2, 1-{[1,5-bis(4-chlorophenyl)-2-methylpyrrol-3-yl]methyl}-4-(2-methoxyphenyl) piperazine]", "MIC": "0.25 to 1"}
{"compound": "Cc1c(CN2CCN(c3ncccn3)CC2)cc(-c2ccc(Cl)cc2)n1-c1ccc(Cl)cc1", "note": "[compound 5, 1-{[1,5-bis(4-chlorophenyl)-2-methylpyrrol-3-yl]methyl}-4-(2-pyrimidyl) piperazine]", "MIC": "1 to 2"}
{"tested_on": "M. tuberculosis clinical isolates, resistant", "test": "microbe, parasite or virus in culture", "type": "cell-based, Mycobacterium tuberculosis", "conditions": "Mycobacterium tuberculosis, read-out: MIC (μg/ml) against Clinical isolates Resistant", "units": {"MIC": "µg/mL"}}
{"compound": "Cc1c(CN2CCN(c3ccc(F)cc3)CC2)cc(-c2ccc(Cl)cc2)n1-c1ccc(Cl)cc1", "note": "[Compound No. 1, 1-{[1,5-bis(4-chlorophenyl)-2-methylpyrrol-3-yl]methyl}-4-(4-fluorophenyl) piperazine]", "MIC": "2 to 4"}
{"compound": "COc1ccccc1N1CCN(Cc2cc(-c3ccc(Cl)cc3)n(-c3ccc(Cl)cc3)c2C)CC1", "note": "[Compound No. 2, 1-{[1,5-bis(4-chlorophenyl)-2-methylpyrrol-3-yl]methyl}-4-(2-methoxyphenyl) piperazine]", "MIC": "0.25 to 1"}
{"compound": "CO[C@H]1/C=C/O[C@@]2(C)Oc3c(C)c(O)c4c(O)c(c(/C=N/N5CCN(C)CC5)c(O)c4c3C2=O)NC(=O)/C(C)=C\\C=C\\[C@H](C)[C@H](O)[C@@H](C)[C@@H](O)[C@@H](C)[C@H](OC(C)=O)[C@@H]1C", "note": "[Rifampicin, reference compound]", "MIC": "4 to 16"}
{"compound": "Cc1c(CN2CCN(c3ccccn3)CC2)cc(-c2ccc(Cl)cc2)n1-c1ccc(Cl)cc1", "note": "[compound 4, 1-{[1,5-bis(4-chlorophenyl)-2-methylpyrrol-3-yl]methyl}-4-(2-pyridyl) piperazine]", "MIC": "0.5 to 4"}
{"compound": "Cc1c(CN2CCN(c3ncccn3)CC2)cc(-c2ccc(Cl)cc2)n1-c1ccc(Cl)cc1", "note": "[compound 5, 1-{[1,5-bis(4-chlorophenyl)-2-methylpyrrol-3-yl]methyl}-4-(2-pyrimidyl) piperazine]", "MIC": "0.5 to 2"}
{"compound": "Cc1ccc(Cl)cc1N1CCN(Cc2cc(-c3ccc(Cl)cc3)n(-c3ccc(Cl)cc3)c2C)CC1", "note": "[compound 10, 1-{[1,5-bis(4-chlorophenyl)-2-methylpyrrol-3-yl]methyl}-4-(5-chloro-2-methylphenyl) piperazine]", "MIC": "1 to 4"}
{"tested_on": "M. tuberculosis clinical isolates, resistant", "test": "microbe, parasite or virus in culture", "type": "cell-based, Mycobacterium tuberculosis", "conditions": "Table I; agar dilution", "units": {"MIC (μg/ml) against Clinical isolates Resistant": "µg/mL"}}
{"compound": "Cc1c(CN2CCN(Cc3ccc4c(c3)OCO4)CC2)cc(-c2ccc(Cl)cc2)n1-c1ccc(Cl)cc1", "note": "[Compound No. 8, 5-[(4-{[1,5-bis(4-chlorophenyl)-2-methylpyrrol-3-yl]methyl}piperazinyl)methyl]-2H-benzo[d]1,3-dioxolane]", "MIC (μg/ml) against Clinical isolates Resistant": "1.0 to 4.0"}
{"compound": "Cc1c(CN2CCN(c3cccc(C(F)(F)F)c3)CC2)cc(-c2ccccc2)n1NC(=O)c1ccncc1", "note": "[Compound No. 12, N-(3-{[4-(3-trifluoromethylphenyl)piperazinyl]methyl}-2-methyl-5-phenylpyrrolyl)-4-pyridylcarboxamide]", "MIC (μg/ml) against Clinical isolates Resistant": "0.5 to 1.0"}
{"compound": "Cc1cc(CN2CCN(c3cccc(C(F)(F)F)c3)CC2)c(-c2ccccc2)n1NC(=O)c1ccncc1", "note": "[Compound No. 23, N-(3-{[4-(3-trifluoromethylphenyl)piperazinyl]methyl}-5-methyl-2-phenylpyrrolyl)-4-pyridylcarboxamide]", "MIC (μg/ml) against Clinical isolates Resistant": "0.25 to 1.0"}
{"compound": "Cc1c(CN2CCN(C(=O)c3ccco3)CC2)cc(-c2ccc(Cl)cc2)n1-c1ccc(Cl)cc1", "note": "[compound 7, 4-{[1,5-bis(4-chlorophenyl)-2-methylpyrrol-3-yl]methyl}piperazinyl-2-furyl-ketone]", "MIC (μg/ml) against Clinical isolates Resistant": "2.0 to 4.0"}
{"compound": "Cc1c(CN2CCN(c3ccc(F)cc3)CC2)cc(-c2ccccc2)n1NC(=O)c1ccncc1", "note": "[compound 11, N-(3-{[4-(4-fluorophenyl)piperazinyl]methyl}-2-methyl-5-phenylpyrrolyl)-4-pyridylcarboxamide]", "MIC (μg/ml) against Clinical isolates Resistant": "0.5 to 2.0"}
{"compound": "COc1ccccc1N1CCN(Cc2cc(-c3ccccc3)n(NC(=O)c3ccncc3)c2C)CC1", "note": "[compound 13, N-(3-{[4-(2-methoxyphenyl)piperazinyl]methyl}-2-methyl-5-phenylpyrrolyl)-4-pyridylcarboxamide]", "MIC (μg/ml) against Clinical isolates Resistant": "1.0 to 2.0"}
{"compound": "Cc1c(CN2CCN(c3ccccn3)CC2)cc(-c2ccccc2)n1NC(=O)c1ccncc1", "note": "[compound 14, N-(3-{[4-(2-pyridyl)piperazinyl]methyl}-2-methyl-5-phenylpyrrolyl)-4-pyridylcarboxamide]", "MIC (μg/ml) against Clinical isolates Resistant": "4.0 to 8.0"}
